Test results from the supplement of paper PMC10307832.

What was measured:
Assay in all cases: relative viability (nuclei count vs DMSO), 5 days (fraction); higher = more cells survive
[1] = compound: CC1(COc2ccc3c(c2)ncn3-c2ccc3cccc(N4CCC(N)CC4)c3n2)COC1 [Crenolanib] + CS(=O)(=O)N1CCN(Cc2cc3nc(-c4cccc5[nH]ncc45)nc(N4CCOCC4)c3s2)CC1 [Pictilisib] (partner 1 µM)
Summary of the method: (§1)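 Values are medians from duplicate plates. Each reflects relative viability, defined as the nuclei count of treated wells over that of vehicle wells. Lung cancer cell lines in 1536-well plates were pin-tool dosed one day after seeding with one drug alone or with a fixed anchor-drug dose plus five library-drug doses (not always all listed) in √10 steps, then fixed, stained and imaged at 4× after 5 days.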

[2] = compound: CC1(COc2ccc3c(c2)ncn3-c2ccc3cccc(N4CCC(N)CC4)c3n2)COC1 [Crenolanib] + CC(=O)Nc1cccc(-n2c(=O)n(C3CC3)c(=O)c3c(Nc4ccc(I)cc4F)n(C)c(=O)c(C)c32)c1 [Trametinib] (partner 0.02 µM)
Summary of the method: as §1

[3] = compound: O=C1NC(=O)[C@@H](c2cn3c4c(cccc24)CCC3)[C@@H]1c1c[nH]c2ccccc12 [Tivantinib] + N=C(N)NC(=N)NCCc1ccccc1 [Phenformin] (partner 250 µM)
Summary of the method: as §1

[4] = compound: CC1(COc2ccc3c(c2)ncn3-c2ccc3cccc(N4CCC(N)CC4)c3n2)COC1 [Crenolanib] + NC(=O)Nc1cc(-c2cccc(F)c2)sc1C(=O)N[C@H]1CCCNC1 [AZD7762] (partner 0.2 µM)
Summary of the method: as §1

Cell Line	relative viability ([1]; first compound 0.01 µM)	relative viability ([1]; first compound 0.03162 µM)	relative viability ([1]; first compound 0.1 µM)	relative viability ([1]; first compound 0.3162 µM)	relative viability ([1]; first compound 1 µM)	relative viability ([2]; first compound 0.01 µM)	relative viability ([2]; first compound 0.03162 µM)	relative viability ([2]; first compound 0.1 µM)	relative viability ([2]; first compound 0.3162 µM)	relative viability ([2]; first compound 1 µM)	relative viability ([3]; first compound 0.01 µM)	relative viability ([3]; first compound 0.03162 µM)	relative viability ([3]; first compound 0.1 µM)	relative viability ([3]; first compound 0.3162 µM)	relative viability ([4]; first compound 0.01 µM)	relative viability ([4]; first compound 0.03162 µM)	relative viability ([4]; first compound 0.1 µM)	relative viability ([4]; first compound 0.3162 µM)	relative viability ([4]; first compound 1 µM)
NCI-H1993	0.778	0.805	0.71	0.858	0.825	0.509	0.512	0.56	0.505	0.501	0.446	0.503	0.514	0.605	0.843	0.802	0.889	0.974	0.688
CAL-12T	0.45	0.407	0.519	0.454	0.44	0.466	0.345	0.372	0.347	0.294	0.639	0.529	0.582	0.259	0.778	0.553	0.641	0.634	0.799
NCI-H1623	–	–	–	–	–	–	–	–	–	–	0.574	0.547	0.49	–	–	–	–	–	–
HCC-78	0.24	0.223	0.239	0.216	0.237	0.826	0.862	0.682	0.756	0.657	0.682	0.711	0.689	0.533	0.629	0.619	0.733	0.477	0.567
EKVX	0.466	0.491	0.364	0.487	0.442	0.365	0.405	0.348	0.332	0.413	0.218	0.256	0.243	–	0.733	0.779	0.731	0.841	0.761
NCI-H1666	0.605	0.352	0.401	0.406	0.411	0.887	0.824	0.857	0.985	0.83	0.566	0.576	0.531	0.552	0.928	0.831	0.761	0.905	0.889
NCI-H1944	0.367	0.351	0.37	0.346	0.304	0.426	0.414	0.375	0.454	0.406	0.189	0.179	0.192	0.228	0.551	0.587	0.534	0.605	0.497
NCI-H1734	0.436	0.494	0.443	0.477	0.432	0.768	0.725	0.682	0.806	0.765	0.401	0.346	0.386	0.451	0.569	0.61	0.567	0.756	0.659
Calu-6	1.04	0.91	0.978	1.15	0.968	–	–	–	–	–	–	–	–	–	–	–	–	–	–
EBC-1	0.469	0.423	0.333	0.357	0.422	–	–	–	–	–	–	–	–	–	–	–	–	–	–
A-427	0.747	0.674	0.642	0.582	0.651	0.831	–	0.755	0.818	0.747	0.378	0.391	0.325	0.304	0.778	–	0.726	0.802	0.853
NCI-H2405	0.473	0.417	0.285	0.347	0.375	0.698	–	0.483	0.621	0.57	0.437	0.38	0.367	0.473	0.801	–	0.554	0.773	0.646
NCI-H1437	0.548	0.517	0.549	0.495	0.571	0.677	0.572	0.487	0.521	0.602	0.3	0.278	0.275	0.351	1.15	1.18	1.07	1.19	1.14
NCI-H358	0.4	0.309	0.332	0.326	0.311	0.169	0.11	0.166	0.133	0.112	0.339	0.327	0.282	0.189	0.577	0.67	0.465	0.537	0.584
RERF-LC-KJ	0.548	0.591	0.538	0.621	0.687	0.882	0.855	0.896	0.901	0.926	0.454	0.442	0.407	0.335	1.19	0.739	0.896	0.894	1.04
NCI-H23	0.482	0.484	0.399	0.487	0.351	0.441	0.412	0.425	0.387	0.408	0.732	0.886	0.749	0.792	0.273	0.309	0.244	0.268	0.276
IA-LM	0.331	0.305	0.314	0.64	0.522	–	–	–	–	–	–	–	–	–	–	–	–	–	–
HCC-15	0.695	0.731	0.696	0.644	0.671	0.4	0.394	0.379	0.402	0.38	0.476	0.411	0.478	0.479	1.07	1.15	0.961	0.607	1.17
COR-L23	0.777	0.756	0.677	1.03	0.654	0.58	0.53	0.418	0.606	0.552	0.453	0.416	0.415	0.508	–	–	–	–	–

Cell Line	relative viability ([1]; first compound 0.01 µM)	relative viability ([1]; first compound 0.03162 µM)	relative viability ([1]; first compound 0.1 µM)	relative viability ([1]; first compound 0.3162 µM)	relative viability ([1]; first compound 1 µM)	relative viability ([2]; first compound 0.01 µM)	relative viability ([2]; first compound 0.03162 µM)	relative viability ([2]; first compound 0.1 µM)	relative viability ([2]; first compound 0.3162 µM)	relative viability ([2]; first compound 1 µM)	relative viability ([3]; first compound 0.01 µM)	relative viability ([3]; first compound 0.03162 µM)	relative viability ([3]; first compound 0.1 µM)	relative viability ([3]; first compound 0.3162 µM)	relative viability ([4]; first compound 0.01 µM)	relative viability ([4]; first compound 0.03162 µM)	relative viability ([4]; first compound 0.1 µM)	relative viability ([4]; first compound 0.3162 µM)	relative viability ([4]; first compound 1 µM)
COR-L 105	0.455	0.363	0.341	0.514	0.411	0.442	0.407	0.491	0.416	0.547	0.523	0.366	0.401	0.369	–	–	–	–	–
SK-LU-1	0.609	0.494	0.432	0.62	0.611	0.465	0.517	0.351	0.491	0.512	0.536	0.539	0.497	0.601	–	–	–	–	–
NCI-H1299	0.793	0.825	0.657	0.878	0.795	–	–	–	–	–	–	–	–	–	–	–	–	–	–
NCI-H661	0.476	0.336	0.368	0.378	0.414	0.57	0.55	0.528	0.603	0.494	0.288	0.281	0.404	0.271	–	–	–	–	–
NCI-H1703	0.237	0.238	0.212	0.209	0.228	–	–	–	–	–	–	–	–	–	0.143	0.131	0.114	0.116	0.113
NCI-H2228	0.372	0.397	0.272	0.491	0.361	0.442	0.544	0.342	0.551	0.5	–	0.296	0.283	0.223	–	–	–	–	–
NCI-H2009	0.854	0.803	0.738	0.708	0.532	0.325	0.296	0.308	0.223	0.235	0.492	0.503	0.481	0.528	–	–	–	–	–
SW 1573	0.368	0.521	0.451	0.656	0.598	0.661	0.607	0.55	0.726	0.579	0.419	0.357	0.392	0.263	–	–	–	–	–
NCI-H522	–	–	–	–	–	0.766	0.615	0.841	0.631	0.638	0.604	0.646	0.636	0.644	1.03	0.853	0.773	0.88	0.836
NCI-H2023	0.264	0.288	0.233	0.278	0.205	0.549	0.556	0.53	0.594	0.494	0.484	0.41	0.422	0.444	–	–	–	–	–
NCI-H1648	–	–	–	–	–	0.541	–	0.469	0.457	0.514	–	–	–	–	0.666	–	0.673	0.673	0.745
SK-MES-1	0.337	0.33	0.375	0.385	0.377	0.583	0.549	0.55	0.548	0.487	0.676	0.672	0.619	0.673	–	–	–	–	–
NCI-H1563	0.608	0.633	0.693	0.652	0.59	–	–	–	–	–	0.581	0.636	0.631	0.63	–	–	–	–	–
NCI-H2342	–	–	–	–	–	0.502	0.822	0.935	0.887	0.904	0.579	0.671	0.568	0.495	0.607	0.475	0.475	0.532	0.484
SW 900	–	–	–	–	–	0.797	–	0.75	0.784	1.18	0.693	0.527	0.573	0.474	0.735	–	0.756	0.858	0.522
A549	0.608	0.545	0.554	0.689	0.506	–	–	–	–	–	0.158	0.169	0.146	0.263	–	–	–	–	–
NCI-H520	0.267	0.324	0.326	0.295	0.301	0.818	0.714	0.644	0.678	0.686	0.669	0.393	0.536	0.547	–	–	–	–	–
NCI-H1650	0.731	0.68	0.583	0.472	0.327	0.715	0.534	0.521	0.747	0.575	0.438	0.352	0.416	0.32	–	–	–	–	–
ABC-1	0.837	0.63	0.83	0.692	0.686	–	–	–	–	–	0.23	0.246	0.201	0.228	–	0.776	0.961	1.01	0.902
